In patent US20110263539A1, “SHIP 1 MODULATOR COMPOUNDS” (THE UNIVERSITY OF BRITISH COLUMBIA, priority 2006, published 2011):

What was measured:
[1] = tested on: SHIP enzyme; assay: In vitro SHIP enzyme assay (Assay 1); type: biochemical; settings: 100 μM inositol-1,3,4,5-tetrakisphosphate, Malachite Green; note: key: a ‘+’ indicates a positive result for desired activity; a ‘−’ indicates a negative result for desired activity
Procedure: Assay 1) In vitro testing in a SHIP enzyme assay. Test compounds were dissolved in a suitable solvent (e.g. EtOH, DMSO and others) and diluted into aqueous buffer (20 mM Tris HCl, pH 7.5 and 10 mM MgCl2). SHIP enzyme assays were performed in 96-well microtitre plates with 10 ng of enzyme/well in a total volume of 25 μL of 20 mM Tris HCl, pH 7.5 and 10 mM MgCl2. SHIP enzyme was incubated with test extracts (provided in solvent) or vehicle for 15 min at 23° C. before the addition of 100 μM inositol-1,3,4,5-tetrakisphosphate (Echelon Biosciences Inc, Salt Lake City, Utah). After 20 min at 37° C. and the amount of inorganic phosphate released assessed by the addition of Malachite Green reagent and absorbance measurement at 650 nm.
For in vitro testing in the SHIP enzyme assay, AQX-016A and Compound 100 were dissolved in EtOH and diluted into aqueous buffer (20 mM Tris HCl, pH 7.5 and 10 mM MgCl2). The actual concentration of drug in solution was determined by optical density measurement at 280 nm (λmax for both compounds) after high speed centrifugation at 14 000×g for 30 min to remove precipitated drug. For testing on cells, compounds were formulated in the carrier cyclodextrin (Cyclodex Technologies, High Springs, Fla.) at 6 mM (2 mg/mL). For oral administration to animals, compounds were dissolved in 100% cremophore EL (Sigma-Aldrich Canada, Oakville, Ontario) at 150 mM (50 mg/mL) prior to dilution to 6 mM in phosphate buffer saline. However, while these compounds caged in cyclodextrin or formulated in cremophore EL micelles were very soluble in aqueous solution, they could not be used in the SHIP enzyme assays because of interference from both cyclodextrin and cremophore EL.
N-terminal His6 tagged SHIP enzyme was expressed in mammalian 293T cells by transient transfection with pME18S-His-SHIP plasmid and purified to >95% homogeneity by Ni-chelating bead chromatography (Qiagen, Mississauga, Ontario). Recombinant SHIP C2 domain (amino acid residues 725 to 863) was expressed in E. coli transformed with a pET28C expression vector constructed as described below. Recombinant protein purified from the cell lysates by Nichelating bead chromatography was >95% pure.
In vitro SHIP enzyme assay. SHIP enzyme assays were performed in 96-well microtitre plates with 10 ng of enzyme/well in a total volume of 25 μL of 20 mM Tris HCl, pH 7.5 and 10 Mm MgCl2. SHIP enzyme was incubated with test extracts (provided in DMSO) or vehicle for 15 min at 23° C. before the addition of 100 μM inositol-1,3,4,5-tetrakisphosphate (Echelon Biosciences Inc, Salt Lake City, Utah). After 20 min at 37° C. and the amount of inorganic phosphate released assessed by the addition of Malachite Green reagent and absorbance measurement at 650 nm. SHIP2 enzyme was purchased from Echelon Biosciences (Salt Lake City, Utah) and an equivalent amount of inositol phosphatase activity was used in the in vitro enzyme assay. Enzyme data are expressed as the mean of triplicates +/−SEM. Experiments were performed at least 3 times. (FIGS. 7A and 7B).

[2] = tested on: J774.1a macrophage cells; assay: Macrophage TNF-α production (Assay 2); type: cell-based; settings: 10 μg/mL test compound, 100 ng/mL LPS, ELISA; note: key: a ‘+’ indicates a positive result for desired activity; a ‘−’ indicates a negative result for desired activity
Procedure: Assay 2) Macrophage TNF-α production. J774.1a macrophage cells were treated with 10 μg/mL of test compound dissolved in solvent (e.g. cyclodextran) for 40 minutes prior to the addition of 100 ng/mL LPS. Culture supernatants were collected after 2 hr and 5 hr for TNF-α determination by ELISA.

[3] = tested on: J774.1a macrophage cells; assay: Macrophage TNF-α NO assay (Assay 3); type: cell-based; settings: 10 μg/ml test compound, LPS, 24 hr, Griess reagent; note: key: a ‘+’ indicates a positive result for desired activity; a ‘−’ indicates a negative result for desired activity
Procedure: Assay 3) Macrophage TNF-α NO assay. J774.1a macrophage cells were treated with 10 μg/ml of test compound dissolved in solvent for 40 minutes prior to the addition of LPS. Culture supernatants were collected after 24 hr. for determination of NO concentration using the Griess reagent.

[4] = tested on: MM cell lines; assay: In vitro Multiple Myeloma (MM) assay (Assay 7); type: cell-based; note: key: a ‘+’ indicates a positive result for desired activity; a ‘−’ indicates a negative result for desired activity
Procedure: Assay 7) In vitro Multiple Myeloma (MM) assay. The ability of SHIP activators to reduce tumor cell survival was assessed in MM cell lines treated with the test compound. The lines OPM1, OPM2, MM.1S and RPMI 8226 were plated at a density of 1×10^5 cells/mL in 200 μL of medium with various concentrations of the test compound, and viable cell numbers were determined on day 3 and day 5 by trypan blue exclusion. The lines RPMI 8226 and U266 were plated at a density of 1×10^6 cells/mL in 250 μL of medium with various concentrations of the test compound. At day 4, the medium of each culture was replaced by fresh medium containing the same concentration of test compound. At day 7, the viable cell number of each culture was determined by trypan blue exclusion.
MM cell lines were cultured in 96 well plates seeded with 3×10^4 cells suspended in 200 μL of medium along with various concentrations of test compound (and associated cyclodextran vehicle control), with LY294002 serving as a positive control in the experiments. After 24-48 hrs of culture, […] of [3H]-thymidine (GE Healthcare, Baie D'Urfe, Canada) being added for the final 8 hours. Cells were harvested and DNA associated radioactivity was measured via liquid scintillation counting using a Wallac Microbeta counter (Perkin-Elmer; Boston, Mass.).
The ability of SHIP activators to reduce tumor cell survival was assessed in multiple myeloma (MM) cell lines treated with Compound 100 or AQX-016A. The lines OPM1, OPM2, MM.1S and RPMI 8226 were plated at a density of 1×10^5 cells/mL in 200 μL of medium with various concentrations of Compound 100, and viable cell numbers were determined on day 3 and day 5 by trypan blue exclusion. The lines RPMI 8226 and U266 were plated at a density of 1×10^6 cells/mL in 250 μL of medium with various concentrations of AQX-016A. At day 4, the medium of each culture was replaced by fresh medium containing the same concentration of AQX-016A. At day 7, the viable cell number of each culture was determined by trypan blue exclusion. Experiments were performed in triplicate.
Proliferation (DNA synthesis) assays. Proliferation was measured by measuring incorporation of [^3H]-thymidine into cells. MM cell lines were cultured in 96 well plates seeded with 3×10^4 cells suspended in 200 μL, of medium along with various concentrations of Compound 100 or AQX-016A (and associated cyclodextran vehicle control), with LY294002 serving as a positive control in the indicated experiments. After 24-48 hrs of culture, 1 μCi of [^3H]-thymidine (GE Healthcare, Baie D'Urfe, Canada) being added for the final 8 hours. Plates were frozen, which also aided in cell lysis, to terminate the experiments. Cells were then harvested onto glass fibre filters using an automatic cell harvester (TomTech; Orange, Conn.) and DNA associated radioactivity was measured via liquid scintillation counting using a Wallac Microbeta counter (Perkin-Elmer; Boston, Mass.). Wells were set up in triplicate and data is expressed as mean+/−SEM.

[5] = tested on: Mast cells; assay: Stimulation of mast cells by FcεRI crosslinking (Assay 4); type: cell-based; settings: anti-DNP IgE, DNP-HSA
Procedure: Assay 4) Stimulation of mast cells by FcåRI crosslinking. Mast cells were pre-loaded overnight in BMMC medium lacking IL-3 with 0.1 μg/ml anti-DNP IgE (SPE-7, Sigma, Oakville, Ont). For calcium flux measurements, cells were incubated with 2 μM fura 2-acetoxymethyl ester (Molecular Probes, Eugene, Oreg.) in Tyrode's buffer at 23° C. for 45 min. Cells were then washed and incubated in the presence of the test compound 30 min prior to stimulation with the indicated concentration of DNP-human serum albumin (DNP-HSA). Calcium influx was monitored by spectrofluorometry as described previously. For analysis of intracellular signaling, cells were pre-loaded with anti-DNP IgE as above, pre-treated with the test compound for 30 min at 37° C. and stimulated with 20 ng/ml DNP-HSA for 5 min. Total cell lysates were then prepared and analyzed for phospho-PKB, phospho-p38^MAPK, phospho-MAPK, Grb-2 (Cell Signalling, Mississauga, Ont) and SHIP^6 by immunoblot analysis.

Cc1cc(O)c(O)c2c1[C@@]1(C)CCC3C(C)(C)CCC[C@]3(C)[C@H]1C2 (stereo partly drawn) [8 Epi 16A]
Assay Number 1: SHIP enzyme assay [1]: +

COC(=O)c1cc(O)c(O)c2c1[C@@]1(C)CCC3C(C)(C)CCC[C@]3(C)[C@H]1C2 (some centres unmarked) [Compound 8-Epipelorol, 8-Epipelorol]
Assay Number 1: SHIP enzyme assay [1]: +

COC(=O)c1cc(O)c(O)c2c1[C@]1(C)CCC3C(C)(C)CCC[C@]3(C)[C@@H]1C2 (some centres unmarked) [Compound 9-Epipelorol, 9-Epipelorol]
Assay Number 1: SHIP enzyme assay [1]: +

CCc1cc(O)c(O)c2c1[C@]1(C)CCC3C(C)(C)CCC[C@]3(C)[C@H]1C2 (some centres unmarked) [Compound 18A, reference compound]
Assay Number 1: SHIP enzyme assay [1]: +
Assay Number 2: Macrophage TNF-α production [2]: +
Assay Number 3: Macrophage NO [3]: +

Cc1cc2c(cc1O)C[C@@H]1[C@@]3(C)CCCC(C)(C)[C@@H]3CC[C@@]21C [Compound 101]
Assay Number 2: Macrophage TNF-α production [2]: +
Assay Number 3: Macrophage NO [3]: +
Assay Number 7: In vitro Multiple Myeloma (MM) assay [4]: +

CC(=O)Oc1cc(C)c2c(c1)C[C@H]1[C@@]2(C)CCC2C(C)(C)CCC[C@@]21C (some centres unmarked) [Compound 102]
Assay Number 2: Macrophage TNF-α production [2]: +
Assay Number 3: Macrophage NO [3]: +

Cc1cc(OC(=O)C(N)CCCNC(=N)N)cc2c1[C@]1(C)CCC3C(C)(C)CCC[C@]3(C)[C@H]1C2 (some centres unmarked) [Compound 105]
Assay Number 2: Macrophage TNF-α production [2]: +
Assay Number 3: Macrophage NO [3]: +

Cc1cc(OP(=O)(O)O)cc2c1[C@]1(C)CCC3C(C)(C)CCC[C@]3(C)[C@H]1C2 (some centres unmarked) [Compound 109]
Assay Number 2: Macrophage TNF-α production [2]: −
Assay Number 3: Macrophage NO [3]: +
Assay Number 7: In vitro Multiple Myeloma (MM) assay [4]: +

Cc1cc(OC(=O)C(CC(=O)O)NC(=O)CCC(=O)O)cc2c1[C@]1(C)CCC3C(C)(C)CCC[C@]3(C)[C@H]1C2 (some centres unmarked) [Compound 114]
Assay Number 2: Macrophage TNF-α production [2]: +
Assay Number 3: Macrophage NO [3]: +

CC1(C)CCC[C@]2(C)[C@H]3Cc4cc(O)cc(O)c4[C@]3(C)CC[C@@H]12 [Compound 115]
Assay Number 7: In vitro Multiple Myeloma (MM) assay [4]: +

COc1cc(O)cc2c1[C@]1(C)CC[C@H]3C(C)(C)CCC[C@]3(C)[C@H]1C2 [Compound 117]
Assay Number 2: Macrophage TNF-α production [2]: +
Assay Number 3: Macrophage NO [3]: +
Assay Number 7: In vitro Multiple Myeloma (MM) assay [4]: +

COc1ccc2c(c1O)C[C@@H]1[C@@]3(C)CCCC(C)(C)[C@@H]3CC[C@@]21C [Compound 118]
Assay Number 2: Macrophage TNF-α production [2]: −
Assay Number 3: Macrophage NO [3]: +
Assay Number 7: In vitro Multiple Myeloma (MM) assay [4]: +

CC1(C)CCC[C@]2(C)[C@H]3Cc4cc(O)ccc4[C@]3(C)CC[C@@H]12 [Compound 121]
Assay Number 2: Macrophage TNF-α production [2]: +
Assay Number 3: Macrophage NO [3]: +
Assay Number 7: In vitro Multiple Myeloma (MM) assay [4]: +

Cc1cc(O)c2c(c1)C[C@@H]1[C@@]3(C)CCCC(C)(C)[C@@H]3CC[C@@]21C [Compound 122]
Assay Number 2: Macrophage TNF-α production [2]: −
Assay Number 3: Macrophage NO [3]: +
Assay Number 7: In vitro Multiple Myeloma (MM) assay [4]: +

Cc1cc(OC(=O)C(N)Cc2cnc[nH]2)cc2c1[C@]1(C)CCC3C(C)(C)CCC[C@]3(C)[C@H]1C2 (some centres unmarked) [Compound 123]
Assay Number 2: Macrophage TNF-α production [2]: +
Assay Number 3: Macrophage NO [3]: +

Cc1cc(O)cc2c1[C@]1(C)CCC3C(C)(C)CCC[C@]3(C)[C@@H]1C2 (some centres unmarked) [Compound 124]
Assay Number 2: Macrophage TNF-α production [2]: +
Assay Number 3: Macrophage NO [3]: +
Assay Number 4: Stimulation of mast cells by FcεRI crosslinking [5]: +
Assay Number 7: In vitro Multiple Myeloma (MM) assay [4]: +

Cc1cc(O)cc2c1[C@@]1(C)CCC3C(C)(C)CCC[C@]3(C)[C@H]1C2 (some centres unmarked) [Compound 125]
Assay Number 2: Macrophage TNF-α production [2]: +
Assay Number 3: Macrophage NO [3]: +
Assay Number 4: Stimulation of mast cells by FcεRI crosslinking [5]: +
Assay Number 7: In vitro Multiple Myeloma (MM) assay [4]: +

COc1cc(C)c2c(c1O)C[C@@H]1[C@@]3(C)CCCC(C)(C)[C@@H]3CC[C@@]21C [Compound 129]
Assay Number 2: Macrophage TNF-α production [2]: −
Assay Number 3: Macrophage NO [3]: +

CC1(C)CCC[C@@]2(C)C1CC[C@@]1(C)c3c(C(=O)O)cc(O)c(O)c3C[C@@H]12 (some centres unmarked) [Desmethylpelorol, reference compound]
Assay Number 1: SHIP enzyme assay [1]: +
Assay Number 2: Macrophage TNF-α production [2]: +
Assay Number 3: Macrophage NO [3]: +

COC(=O)c1cc(O)c(O)c2c1[C@]1(C)CCC3C(C)(C)CCC[C@]3(C)[C@H]1C2 (some centres unmarked) [Pelorol, pelorol]
Assay Number 1: SHIP enzyme assay [1]: +
